Results from US20220339127A1, “DRUGGABLE TARGET TO TREAT RETINAL DEGENERATION” (The United States of America,as represented by the …, priority 2019, published 2022).
Entries after “also recorded” stand apart in the source; their conditions may differ.

What was measured:
Type in all cases: cell-based, human
[1] = test system: ABCA1; experiment: Bodipy lipid deposits in CC-HS treated Stargardt iRPE with ABCA1 activator; conditions: 10 μM
Text: 115(36): p. 9014-9019]. […] To further understand the ABCA4 driven mechanism in disease pathogenesis, this example focuses on ABCA1- an ABCA4 homolog, involved in cholesterol transport. […] Journal of Biological Chemistry, 2013. 288(48): p. 34414-34426, Tanaka, A. R., et al., Human ABCA1 contains a large amino-terminal extracellular domain homologous to an epitope of Sjögren's Syndrome. Biochemical and biophysical research communications, 2001. 283(5): p. 1019-1025, Storti, F., et al., Impaired ABCA1/ABCG1-mediated lipid efflux in the mouse retinal pigment epithelium (RPE) leads to retinal degeneration. Elife, 2019. 8: p. e45100.]. To determine if both ABCA proteins work through the lipid handling pathway, the effects of modulating ABCA1 expression on changes the disease phenotype in Stargardt RPE cells was observed. An shRNA knockdown of ABCA1 in ABCA4 iRPE cells was performed and the cells were treated with CC-HS. […] (FIG. 34A-G), In contrast, lipid accumulation defects in Stargardt RPE cells were rescued by ABCA1 overactivation using GW3965 (ABCA1 activator) (FIG. 34 H-N).

[2] = test system: AMPK; experiment: Phospho-AMPK ELISA in iPSC-RPE of L-ORD patients and unaffected siblings; conditions: for p-AMPK levels: 0% serum, 2 mM AICAR or 500 nM BAM15
Protocol: Thus, in FIG. 16b iPSC-RPE were incubated with recombinant CTRP5 globular form (0.2 μg/mL gCTRP5) for 30 min in the presence (+) and absence (−) of serum to evaluate its role in AMPK signaling.
To better elucidate the ADIPOR1-CTRP5 (receptor-ligand) interaction, […] a ligand dose response curve was performed (in serum free media) by exogenously adding increasing concentrations of recombinant full length CTRP5 (FIG. 16c).
AMPK is a sensitive indicator of the cell energy status and is canonically activated by the levels of AMP or ATP (Hardie and Lin, 2017). Therefore, the AMPK activity (in serum free media) of sibling and patient iPSC-RPE under conditions (increased AMP:ATP ratio) known to stimulate AMPK phosphorylation was characterized (FIG. 16d). iPSC-RPE were incubated in serum deprived media for 5 hours (Park et al., 2009) followed by 30 mins exposure to AICAR (an AMP analogue) or BAM15 (a mitochondrial uncoupler to reduce ATP production).
Metformin treatment consisted of 3 mM metformin added to the apical and basal media for 1½- 2 weeks.

[3] = test system: iRPE cells; experiment: A23187 cytotoxicity on iRPE cells (CellTitrGlo ATP release)
Text: It was hypothesized that the loss of epithelial phenotype/RPE dedifferentiation is a key AMD cellular phenotype and easier to set up for a high throughput screen. Drugs that would suppress RPE dedifferentiation and recover the epithelial phenotype in cells might also work to rescue additional AMD cellular endophenotypes. Drug screen was designed using a calcium-ionophore A23187 instead of CC-HS serum, for three reasons: 1) CC-HS lost activity in liquid handler tubing used for medium change, likely because active complement proteins were absorbed on the walls of liquid handler tubes; 2) Similar to A23187, CC-HS treatment of iRPE also led to a defect in intracellular calcium homeostasis.
10 μM concentration of A23187 was selected for the drug screening, because it provided a bigger margin for cell death rescue. A commercially available library of pharmaceutically active compounds (LOPAC) with 1280 drugs was used for the screen at two different concentrations 9.2 μM and 46 μM. […]

[4] = test system: iRPE cells; experiment: Proteotoxic high throughput screen (LOPAC) and follow up screen: survival of A23187 treated iRPE; conditions: seven-point dose curve; A23187 2.5, 5, 10 μM; two iRPE samples
Protocol: 10 μM concentration of A23187 was selected for the drug screening, because it provided a bigger margin for cell death rescue. […] Drug treatment along with the stressor, 10 μM A23187 were added on to iRPE cells matured in 384-well plates and cell death was scored 48 hours later by ATP release using the CellTitrGlo assay.
To distinguish false positives from the real signal, a follow up screen on all of the 45 drugs using iRPE derived from two different iPSC lines was performed. The follow up screen was performed at three different A23187 concentrations (2.5, 5, 10 μM) and with seven different concentrations of drugs ranging from 10 nM-1 mM (FIG. 13D-F). […] Overall, the HTS screen provided two drugs for testing in the in vitro AMD model.

[5] = test system: iRPE monolayer; experiment: Transepithelial resistance (TER) of CC-HS treated iRPE monolayer; conditions: compstatin 10 μM and PMX053 10 μM used together in CC-HS
Text: Lastly, it was checked if the drugs rescued mature RPE phenotype and RPE functionality.

[6] = test system: iRPE cells; experiment: Sub-RPE APOE deposits in CC-HS treated iRPE with receptor blockers; conditions: concurrent use of compstatin 10 μM (C3aR1 blocker) and PMX053 10 μM (C5aR1 blocker) in CC-HS
Text: It was hypothesized that CC-HS triggered AMD cellular phenotypes in iRPE cells are generated by the anaphylatoxin arm of the complement pathway via C3a-C3aR1 and C5a-05aR1 signaling induced intracellular inflammation (Fernandez-Godino and Pierce 2018). RNAseq confirmed the expression of both receptors in iRPE cells with ˜30× higher expression in of C5aR1 as compared to C3aR1 (FIG. 10A). Furthermore, the expression of both receptors increases with CC-HS treatment. Western blot confirmed C3aR1 and C5aR1 receptors localization in the membrane fraction of iRPE cells (FIG. 2A). […] To verify that CC-HS activates C3aR and C5aR signaling in iRPE cells, samples were checked for phosphorylation of AKT and ERK1/2, the two key kinases downstream of C3aR1 and C5aR1 receptors (Hajishengallis and Lambris 2010; Zhu et al 2015 Mol Vis; Busch et al 2017 Front. In Immu.). […] Furthermore, consistent with the predominant apical localization of C3aR1 and C5aR1, apical only treatment of CC-HS caused a 4.5-5×TER drop (p<10^−16), similar to the combined apical/basal treatment of CC-HS. In contrast, basal only treatment of CC-HS resulted only in a 2×TER drop (p<10^−16) (FIG. 2H). To further dissect the role of C5aR1 and C3aR1 signaling in inducing AMD cellular phenotypes in iRPE cells, a depleted sera and receptor blocker strategy was employed. […]

[7] = unaffected siblings, 5h 0% serum, 30 min, 25 ug/mL

O=C(O)Cc1cccc(OCCCN(Cc2cccc(C(F)(F)F)c2Cl)CC(c2ccccc2)c2ccccc2)c1 [GW3965]
intra/sub-RPE bodipy-positive lipid deposits [1]: rescued | intra/sub-RPE bodipy-positive lipid deposits ([1]; listed as GW 3965): reduced lipid deposit

NC(=O)c1ncn([C@@H]2O[C@H](CO)[C@@H](O)[C@H]2O)c1N [AICAR]
p-AMPK levels ([2]; L-ORD patient RPE, 30 min): insensitive | p-AMPK levels ([2]; unaffected siblings, 30 min): stimulates further phosphorylation of AMPK; also recorded: further elevation in AMPK levels

CNc1ccc2oc(C[C@H]3O[C@@]4(CC[C@H]3C)O[C@H]([C@H](C)C(=O)c3ccc[nH]3)[C@H](C)C[C@H]4C)nc2c1C(=O)O [A23187]
cell death ([3]; 2.5 μM A23187, 48 hours): 50% | toxicity to iRPE cells ([3]; 96 hours, 2.5, 10, 25 μM A23187): completely toxic; also recorded: cytotoxic

COc1cc2ncnc(Nc3cccc(Cl)c3)c2cc1OC [AG-1478]
cytoprotective activity in follow up screen [4]: linear response the seven-point dose curve and reproducibility between two different iRPE samples

CC[C@H](C)[C@H](N)C(=O)N[C@H]1CSSC[C@@H](C(=O)N[C@H](C(N)=O)[C@@H](C)O)NC(=O)[C@H](CCCN=C(N)N)NC(=O)[C@H](Cc2cnc[nH]2)NC(=O)[C@H](Cc2cnc[nH]2)NC(=O)CNC(=O)[C@H](Cc2c[nH]c3ccccc23)NC(=O)[C@H](CC(=O)O)NC(=O)[C@H](CCC(N)=O)NC(=O)[C@H](C(C)C)NC(=O)[C@H](C(C)C)NC1=O [compstatin]
higher iRPE monolayer TER compared to CC-HS treated samples [5]: 5 × | lower sub-RPE APOE deposits compared to CC-HS plus vehicle [6]: 2 ×

Fc1ccccc1Nc1nc2nonc2nc1Nc1ccccc1F [BAM15]
p-AMPK levels ([2]; L-ORD patient RPE, 30 min): insensitive | p-AMPK levels ([2]; unaffected siblings, 30 min): further stimulates phosphorylation of AMPK; also recorded: further elevation in AMPK levels

B1: recombinant full length CTRP5: recombinant full length CTRP5 (protein, UniProt Q9BXJ0 1-243, looked up)
chain: MRPLLVLLLLGLAAGSPPLDDNKIPSLCPGHPGLPGTPGHHGSQGLPGRDGRDGRDGAPGAPGEKGEGGRPGLPGPRGDPGPRGEAGPAGPTGPAGECSVPPRSAFSAKRSESRVPPPSDAPLPFDRVLVNEQGHYDAVTGKFTCQVPGVYYFAVHATVYRASLQFDLVKNGESIASFFQFFGGWPKPASLSGGAMVRLEPEDQVWVQVGVGDYIGIYASIKTDSTFSGFLVYSDWHSSPVFA
modifications: full-length
change in p-AMPK levels ([2]; L-ORD patient RPE, similar concentrations, serum free): had no effect on AMPK activity; also recorded: no measurable change | p-AMPK level [2, 7]: 47.89%±0.13 | reduction in p-AMPK levels [2, 7]: 50%
